Patent publication US11007208B2 (priority 2015, dated 2021)
Like-named read-outs stand apart in the source and are kept apart here.

Tests used:
[1] = tested on: MERS-CoV; experiment: microbe, parasite or virus in culture; assay type: cell-based; settings: Middle East respiratory syndrome-related coronavirus, Calu-3 2B4, read-out: EC50 MERS (Calu-3)
[2] = mouse, in vivo
[3] = tested on: SARS-CoV; experiment: microbe, parasite or virus in culture; assay type: cell-based; settings: Severe acute respiratory syndrome coronavirus, HAE, read-out: EC50 SARS (HAE)
[4] = in vitro; settings: human
[5] = tested on: Lassa virus; experiment: microbe, parasite or virus in culture; assay type: cell-based; settings: Mammarenavirus lassaense, HeLa; for EC50: read-out: EC50 HCS Lassa HeLa; for EC90: read-out: EC90 HCS Lassa HeLa
[6] = in vitro; settings: human; remark: listed apart in the source
[7] = tested on: SARS-CoV; experiment: microbe, parasite or virus in culture; assay type: cell-based; settings: Severe acute respiratory syndrome coronavirus, Calu-3 2B4, read-out: EC50 SARS (Calu-3)
[8] = tested on: Junin virus; experiment: microbe, parasite or virus in culture; assay type: cell-based; settings: Mammarenavirus juninense, HeLa; for EC50: read-out: EC50 HCS Junin HeLa; for EC90: read-out: EC90 HCS Junin HeLa
[9] = tested on: MERS-CoV (Strain Jordan N3); experiment: microbe, parasite or virus in culture; assay type: cell-based; settings: Middle East respiratory syndrome-related coronavirus, Vero, read-out: EC50 MERS-CoV Vero
[10] = tested on: MERS-CoV; experiment: microbe, parasite or virus in culture; assay type: cell-based; settings: Middle East respiratory syndrome-related coronavirus, HAE, read-out: EC50 MERS (HAE)
[11] = tested on: MERS-CoV isolate HCoV-EMC/2012; set-up: species or system rhesus monkeys; settings: rhesus monkey, in vivo
[12] = tested on: SARS-CoV; set-up: species or system mice; settings: mouse, in vivo
[13] = tested on: Junin virus; experiment: microbe, parasite or virus in culture; assay type: cell-based; settings: Mammarenavirus juninense, Vero; for EC90: read-out: EC90 Junin Vero

Compound	EC50 [3] [µM]	CC50 [4] [µM]	EC50 [5] [µM]	EC90 [5] [µM]	CC50 [6] [µM]	EC50 [8] [µM]	EC90 [8] [µM]	EC50 [9] [µM]	EC50 [10] [µM]	EC90 [13] [µM]	also measured
CCC(CC)COC(=O)[C@H](C)N[P@](=O)(OC[C@H]1O[C@@](C#N)(c2ccc3c(N)ncnn23)[C@H](O)[C@@H]1O)Oc1ccccc1 [Compound 32, (S)-2-ethylbutyl 2-(((S)-(((2R,3S,4R,5R)-5-(4-aminopyrrolo[2,1-f][1,2,4]triazin-7-yl)-5-cyano-3,4-dihydroxytetrahydrofuran-2-yl)methoxy)(phenoxy)phosphoryl)amino)propanoate]	0.069	> 10	1.65	3.31	> 10	0.47	1.26	0.58	0.074		EC50 [1]: 0.03 µM; Plasma stability [2]: improved the plasma stability; EC50 [7]: 0.01 µM; Respiration rates [11]: tended to be higher at Day 6 in vehicle-treated animals; Viral RNA in the liver, spleen, kidney and bladder tissue [11]: below the limit of detection; Viral RNA in the mediastinal lymph node [11]: detected in all animals; Viral RNA in the respiratory tract [11]: significantly reduced; Viral load in nose swabs and throat swabs [11]: no difference in viral load; Body weight and body temperature during the course of the infection ([11]; iv, 10 mg/kg): did not change appreciably; Cumulative clinical scores ([11]; iv, 10 mg/kg): notably higher in vehicle-treated animals; Disease symptoms ([11]; iv, 10 mg/kg): less pronounced; Changes in body weight post infection [12]: no evidence of weight loss; Expiration Time and End Expiratory Pause (whole body plethysmography) [12]: reduced; Infectious virus in lung tissue by plaque assay [12]: significantly decreased; Penh values (whole body plethysmography) [12]: lower compared to vehicle-treated animals
N#C[C@@]1(c2ccc3c(N)ncnn23)O[C@H](CO)[C@@H](O)[C@H]1O [Compound 1, (2R,3R, 4S, 5R)-2-(4-aminopyrrolo[1,2-f][1,2,4]triazin-7-yl)-3,4-dihydroxy-5-(hydroxymethyl)tetrahydrofuran-2-carbonitrile]	0.22	> 100			> 100				0.46	> 47	
CCC(CC)COC(=O)[C@H](C)NP(=O)(OC[C@H]1O[C@@](C#N)(c2ccc3c(N)ncnn23)[C@H](O)[C@@H]1O)Oc1ccccc1 (stereo partly drawn) [Compound 9, (2S)-2-ethylbutyl 2-((((2R,3S,4R,5R)-5-(4-aminopyrrolo[1,2-f][1,2,4]triazin-7-yl)-5-cyano-3,4-dihydroxytetrahydrofuran-2-yl)methoxy)(phenoxy)phosphorylamino)propanoate]			2	4.21		0.49	1.25	0.46		> 47	EC50 ([13]; read-out: EC50 Junin Vero): > 47 µM
